Square brackets hold non-standard residues; d marks the D form. Side chains are listed from the residue outwards. Peptide text beside a SMILES is read from it. * marks the point of attachment. Phe(2-F) = N[C@@H](Cc1ccccc1F)C(=O)O; Palmitoyl = CCCCCCCCCCCCCCCC(=O)*; αMeF = C[C@](N)(Cc1ccccc1)C(=O)O; Iva = CC[C@](C)(N)C(=O)O; Aib = CC(C)(N)C(=O)O
Test system: male C57BL/6J mouse
Assay: Evaluation of feeding suppressive action in mice
Format: in vivo
Conditions: 30 nmol/kg s.c. once a day for 3 days; 3-days cumulative food consumption vs solvent control
Experimental: The feeding suppressive activity of a test compound was examined by the method described below.
The test compound was dissolved at a concentration of 30 or 100 nmol/2 mL in a solvent (10% DMSO-containing physiological saline). The test compound solution was subcutaneously administered at a dose of 2 mL/kg to the back of each male C57BL/6J mouse at 8-9 weeks of age (20-26° C., allowed to take food and water ad libitum; raised in the 12-hour bright-12-hour dark cycle). The administration was performed once a day for 3 days. After the administration, the mouse was individually raised in a rearing cage, and given previously weighed food; food consumption for 3 days after the start of administration was measured. The food consumption was calculated by subtracting the amount of remaining food from the weight of the food given on the day of the start of administration. When the food consumption of a control group receiving administration of the solvent alone was regarded as a suppression rate of 0%, the feeding suppressive activity of each test compound was evaluated on the basis of 3-days cumulative food consumption after the start of administration. The food intake suppression rate (%) of the test compound was defined as (Food consumption of the control group−Food consumption of the test compound-administered group)/Food consumption of the control group×100.

`CCCCCCCCCCCCCCCC(=O)NCC(=O)NCC(=O)NCC(=O)NCC(=O)NCCCC[C@H](NC(=O)[C@H](CC(=O)O)NC(=O)[C@H](CO)NC(=O)[C@@H](NC(=O)[C@](C)(Cc1ccccc1)NC(=O)[C@@H](NC(=O)CNC(=O)[C@H](CCC(=O)O)NC(=O)C(C)(C)NC(=O)[C@@H](N)Cc1ccc(O)cc1)[C@@H](C)O)[C@@H](C)O)C(=O)NC(C)(C)C(=O)N[C@H](C(=O)NC(C)(C)C(=O)N[C@@H](CC(C)C)C(=O)N[C@@H](CCC(=O)O)C(=O)N[C@@H](CCCCN)C(=O)N[C@@H](CCC(N)=O)C(=O)N[C@@H](CCCNC(=N)N)C(=O)N[C@@H](CCC(N)=O)C(=O)N[C@@](C)(CC)C(=O)N[C@@H](CCC(=O)O)C(=O)N[C@@H](Cc1ccccc1)C(=O)N[C@H](C(=O)N[C@@H](CCCNC(=N)N)C(=O)N[C@@H](Cc1c[nH]cn1)C(=O)N[C@@H](CC(C)C)C(=O)N[C@@H](CC(C)C)C(=O)N[C@@H](CC(N)=O)C(=O)N[C@@H](CCCCN)C(=O)NC(C)(C)C(=O)N[C@H](C(=O)N[C@@H](CCCNC(=N)N)C(=O)N[C@@H](CCC(N)=O)C(=O)N[C@@H](CCCNC(=N)N)C(=O)N[C@@H](Cc1ccc(O)cc1)C(N)=O)[C@@H](C)O)C(C)C)[C@@H](C)CC` [Example 31] (H-Y[Aib]EGT[αMeF]TSDK([Gly-Gly-Gly-Gly-Palmitoyl])[Aib]I[Aib]LEKQRQ[Iva]EFVRHLLNK[Aib]TRQRY-NH2) was tested, and the “Rate of feeding suppression (%)” value was −56.8%.
`CCCCCCCCCCCCCCCC(=O)NCC(=O)NCC(=O)NCC(=O)NCC(=O)NCCCC[C@H](NC(=O)[C@H](CC(=O)O)NC(=O)[C@H](CO)NC(=O)[C@@H](NC(=O)[C@](C)(Cc1ccccc1)NC(=O)[C@@H](NC(=O)CNC(=O)[C@H](CCC(=O)O)NC(=O)C(C)(C)NC(=O)[C@@H](N)Cc1ccc(O)cc1)[C@@H](C)O)[C@@H](C)O)C(=O)NC(C)(C)C(=O)N[C@H](C(=O)NC(C)(C)C(=O)N[C@@H](CC(C)C)C(=O)N[C@@H](CC(=O)O)C(=O)N[C@@H](CCCCN)C(=O)N[C@@H](CCC(N)=O)C(=O)N[C@@H](C)C(=O)N[C@@H](CCC(N)=O)C(=O)N[C@@](C)(CC)C(=O)N[C@@H](CCC(=O)O)C(=O)N[C@@H](Cc1ccccc1)C(=O)N[C@H](C(=O)N[C@@H](CCCNC(=N)N)C(=O)N[C@@H](Cc1c[nH]cn1)C(=O)N[C@@H](CC(C)C)C(=O)N[C@@H](CC(C)C)C(=O)N[C@@H](CC(N)=O)C(=O)N[C@@H](CCCCN)C(=O)NC(C)(C)C(=O)N[C@H](C(=O)N[C@@H](CCCNC(=N)N)C(=O)N[C@@H](CCC(N)=O)C(=O)N[C@@H](CCCNC(=N)N)C(=O)N[C@@H](Cc1ccccc1F)C(N)=O)[C@@H](C)O)C(C)C)[C@@H](C)CC` [Example 1] (H-Y[Aib]EGT[αMeF]TSDK([Gly-Gly-Gly-Gly-Palmitoyl])[Aib]I[Aib]LDKQAQ[Iva]EFVRHLLNK[Aib]TRQR[Phe(2-F)]-NH2) was tested, and the “Rate of feeding suppression (%)” value was −37.1%.
For `CCCCCCCCCCCCCCCC(=O)NCC(=O)NCC(=O)NCC(=O)NCC(=O)NCCCC[C@H](NC(=O)[C@H](CC(=O)O)NC(=O)[C@H](CO)NC(=O)[C@@H](NC(=O)[C@](C)(Cc1ccccc1)NC(=O)[C@@H](NC(=O)CNC(=O)[C@H](CCC(=O)O)NC(=O)C(C)(C)NC(=O)[C@@H](N)Cc1ccc(O)cc1)[C@@H](C)O)[C@@H](C)O)C(=O)N[C@@H](C)C(=O)N[C@H](C(=O)NC(C)(C)C(=O)N[C@@H](CC(C)C)C(=O)N[C@@H](CC(=O)O)C(=O)N[C@@H](CCCCN)C(=O)N[C@@H](CCC(N)=O)C(=O)N[C@@H](CCCNC(=N)N)C(=O)N[C@@H](CCC(N)=O)C(=O)N[C@@](C)(CC)C(=O)N[C@@H](CCC(=O)O)C(=O)N[C@@H](Cc1ccccc1)C(=O)N[C@H](C(=O)N[C@@H](CCCNC(=N)N)C(=O)N[C@@H](Cc1c[nH]cn1)C(=O)N[C@@H](CC(C)C)C(=O)N[C@@H](CC(C)C)C(=O)N[C@@H](CC(N)=O)C(=O)N[C@@H](CCCCN)C(=O)NC(C)(C)C(=O)N[C@H](C(=O)N[C@@H](CCCNC(=N)N)C(=O)N[C@@H](CCC(N)=O)C(=O)N[C@@H](CCCNC(=N)N)C(=O)N[C@@H](Cc1ccc(O)cc1)C(N)=O)[C@@H](C)O)C(C)C)[C@@H](C)CC` [Example 11] (H-Y[Aib]EGT[αMeF]TSDK([Gly-Gly-Gly-Gly-Palmitoyl])AI[Aib]LDKQRQ[Iva]EFVRHLLNK[Aib]TRQRY-NH2), the “Rate of feeding suppression (%)” value was −48.1%.

From US10501516B2, “Peptide compound” (TAKEDA PHARMACEUTICAL COMPANY LIMITED, priority 2016, dated 2019)
